Source: patent US20230014181A1, “CULTURE SYSTEM AND METHODS FOR IMPROVED MODELING OF NEUROLOGICAL CONDITIONS” (Genentech, Inc., priority 2021, published 2023)
Read-outs that look alike come from different tables or passages of the source.

What was measured:
[1] = tested on: human iPSC neurons and astrocytes treated with 5 μM sAβ42s; assay: Focused small molecule screen, double culture (neuron, astrocyte), rescue from sAβ42s toxicity, high content imaging; assay type: cell-based; conditions: double culture, 5 μM sAβ42s; for percent rescue from sAβ42s toxicity at 50 µM: Homo sapiens, iPSC
Method: FIGS. 11A-11D show synapse % rescue versus MAP2% rescue (FIGS. 11A-11B) and beta III tubulin % rescue versus MAP2% rescue (FIGS. 11C-11D), in neurons and astrocytes (FIGS. 11A and 11C) or neurons, astrocytes, and microglia (FIGS. 11B and 11D) treated with 5 μM sAβ42s and small molecules from a focused screen of known neuroprotective agents at multiple concentrations (50 μM, 25 μM, 12.5 μM and 6.25 μM (double culture), 50 μM, 12.5 μM, 3.1 μM and 0.78 μM (triple culture). Small molecules that prevented toxicity in dendrites (MAP2), synapses (Synapsin 1/2), cell count (CUX2), or axons ([…]) at or above 30% were considered hits (red dotted line).
Neurons from both NSC lines were evaluated by immunofluorescence staining. Briefly, cells were fixed with 4% PFA and 4% sucrose at room temperature for 20 minutes using Bravo automation. Fixed cells were then washed 2 times with PBS using Biotek 406 microplate washer (Beckman Coulter), followed by permeabilization and blocking by incubation with a solution containing 1×PBS, 0.1% Triton X-100, 2% donkey serum, and 1% BSA at room temperature for 30 minutes. Blocking solution was removed and cells were incubated with primary antibodies in blocking solution overnight at 4° C. After washing 6 times with PBS on Biotek 406 cell plate washer (Beckman Coulter), cells were then incubated with fluorophore-conjugated secondary antibodies for 1 hour at room temperature in the dark to avoid photobleaching. Cells were then washed 6 more times in with PBS before imaging. Fluorescent images were captured using IN Cell 6000 confocal microscope (GE Healthcare Life Sciences). The image analysis was performed with IN Cell 6000 analysis software.
Prior to experimentation, media volume in wells containing neurons was equalized with liquid handling automation (Bravo) in order to ensure precise control of concentrations. All Aβ42 oligomers, anti-Aβ, small molecules, inflammatory cytokines were prepared at 10× concentration and added to Neuronal Culture Media at an appropriate volume. For the repeated dosing experiments, the media were refreshed 50% at each dosing first, before adding Aβ42 oligomers, and/or anti-Aβ antibody at the specified final concentration.
In double (neuron, astrocyte) and triple (neuron, astrocyte, microglia) cultures, each small molecule listed in Table 1 was tested in the AD model paradigm at up to four concentrations. Molecules that characterized ≥30% rescue in any of the four measurements of dendrites area (MAP2), synapses count (synapsin 1/2), or cell count (CUX2), or axon area (Beta III Tubulin; “BT3”)) were classified as hits (FIGS. 11A-11D, Table 2, and Table 3).

[2] = tested on: human iPSC neurons, astrocytes and microglia treated with 5 μM sAβ42s; assay: Focused small molecule screen, triple culture (neuron, astrocyte, microglia), rescue from sAβ42s toxicity; assay type: cell-based; conditions: for percent rescue from sAβ42s toxicity at 50 µM: Homo sapiens, iPSC
Outline: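 A hit was any compound giving ≥30% rescue of dendrite area (MAP2), synapse count, CUX2 cell count or axon area when dosed against 5 μM sAβ42s toxicity. Testing used iPSC-derived double (neuron/astrocyte) or triple (plus microglia) cultures, at four concentrations of 50, 25, 12.5 and 6.25 μM for double and 50, 12.5, 3.1 and 0.78 μM for triple cultures.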

## C=C[C@@]1(C)CC(=O)[C@]2(O)[C@@]3(C)[C@@H](O)CCC(C)(C)[C@@H]3[C@H](OC(=O)CCN(C)C)[C@H](OC(C)=O)[C@@]2(C)O1.Cl [NKH 477]
[1]; 6.25 μM compound
  % B3T rescue: 38%
  % Cux2 rescue: 21%
  % MAP2 rescue: 39%
  % Synapse rescue: 7%
[1]; 12.5 μM compound
  % B3T rescue: 38%
  % Cux2 rescue: 24%
  % MAP2 rescue: 45%
  % Synapse rescue: 5%
[1]; 25 μM compound
  % B3T rescue: 35%
  % Cux2 rescue: 21%
  % MAP2 rescue: 43%
  % Synapse rescue: −4%
[1]; 50 μM compound
  % B3T rescue: 38%
  % Cux2 rescue: 45%
  % MAP2 rescue: 44%
  % Synapse rescue: −5%
[2]; 3.13 μM compound
  % B3T rescue: 42%
  % MAP2 rescue: 17%
  % Synapse rescue: 12%
[2]; 12.50 μM compound
  % B3T rescue: 49%
  % MAP2 rescue: 9%
  % Synapse rescue: 8%
[2]; 50.00 μM compound
  % B3T rescue: 81%
  % MAP2 rescue: 53%
  % Synapse rescue: 38%

## CC(=O)c1c(C)c2cnc(Nc3ccc(N4CCNCC4)cn3)nc2n(C2CCCC2)c1=O [PD 0332991 isethionate]
[1]; 50 μM compound, read-out: % B3T rescue
  percent rescue from sAβ42s toxicity at 50 µM: 69%
[1]; 50 μM compound, read-out: % Cux2 rescue
  percent rescue from sAβ42s toxicity at 50 µM: -37%
[1]; 50 μM compound, read-out: % MAP2 rescue
  percent rescue from sAβ42s toxicity at 50 µM: -97%
[1]; 50 μM compound, read-out: % Synapse rescue
  percent rescue from sAβ42s toxicity at 50 µM: -15%
[2]; 50.00 μM compound, read-out: % B3T rescue
  percent rescue from sAβ42s toxicity at 50 µM: 90%
[2]; 50.00 μM compound, read-out: % MAP2 rescue
  percent rescue from sAβ42s toxicity at 50 µM: -79%
[2]; 50.00 μM compound, read-out: % Synapse rescue
  percent rescue from sAβ42s toxicity at 50 µM: -29%

## COC(=O)C1(C)c2[nH]c3ccccc3c2CCN1C(=O)CCl (stereo not shown) [PDI Inhibitor 16F16]
[1]; 6.25 μM compound
  % B3T rescue: 27%
  % Cux2 rescue: 46%
  % MAP2 rescue: 6%
  % Synapse rescue: 5%
[1]; 12.5 μM compound
  % B3T rescue: 3%
  % Cux2 rescue: 45%
  % MAP2 rescue: 1%
  % Synapse rescue: −1%
[1]; 25 μM compound
  % B3T rescue: −46%
  % Cux2 rescue: 66%
  % MAP2 rescue: −10%
  % Synapse rescue: −8%
[1]; 50 μM compound
  % B3T rescue: −22%
  % Cux2 rescue: 34%
  % MAP2 rescue: −12%
  % Synapse rescue: −13%
[2]; 3.13 μM compound
  % B3T rescue: 71%
  % MAP2 rescue: 44%
  % Synapse rescue: 43%
[2]; 12.50 μM compound
  % B3T rescue: 43%
  % MAP2 rescue: −6%
  % Synapse rescue: 8%
[2]; 50.00 μM compound
  % B3T rescue: 42%
  % MAP2 rescue: −5%
  % Synapse rescue: −1%

## O=C1NC(=O)c2c1c1c3ccccc3n3c1c1c2c2ccccc2n1C1CCC3O1 [SB 218078]
[1]; 50 μM compound
  % B3T rescue: 72%
  % Cux2 rescue: −39%
  % MAP2 rescue: −92%
  % Synapse rescue: −15%
[2]; 0.78 μM compound
  % B3T rescue: 38%
  % MAP2 rescue: 10%
  % Synapse rescue: 14%
[2]; 50.00 μM compound
  % B3T rescue: −11%
  % MAP2 rescue: 53%
  % Synapse rescue: 19%
